Laboratory results as given in PMC13335808 (Advanced Science, 2026).

Target: LRRK2 G2019S (Homo sapiens, UniProt Q5S007, G2019S)
Test: ADP-Glo Kinase Assay, LRRK2 G2019S
Format: biochemical
Conditions: 120 min kinase reaction at 25 °C, 10 concentrations, read-out: IC50 (LRRK2 G2019S_ADP-Glo Assay)
Procedure: Kinase inhibition assays were performed using the ADP-Glo^TM Kinase Assay (Promega) in 384-well format. A 2× ATP/substrate solution and a 2× kinase solution was prepared in kinase reaction buffer. Compounds were dispensed into the assay plates (100 nL per well) using an Echo 655 acoustic dispenser. Subsequently, 5 μL of the 2× kinase solutions were added to each well, followed by centrifugation at 1000 rpm for 1 min and incubation at 25 °C for 10 min. The kinase reactions were initiated by the addition of 5 μL of the 2× ATP/substrate solution.
Following the kinase reaction, 5 μL of ADP-Glo reagent was added to each well. Plates were centrifuged at 1000 rpm for 1 min and incubated at 25 °C for 60 min to terminate the reaction and deplete unconsumed ATP. […] Luminescence signals were recorded using a BMG plate reader.
The percentage inhibition (inhibition%) was calculated as: […]
IC50 values were determined by nonlinear regression of the inhibition% versus the logarithm of compound concentrations using a four-parameter sigmoidal dose–response model (variable slope) in GraphPad Prism 10.0. […]
Ten different concentrations were tested for each compound. […] Residual kinase activity was determined based on luminescence readouts, and the data were normalized to vehicle (100% activity) and complete inhibition controls (0% activity). […]

Sequence of LRRK2 G2019S (Q5S007 whole entry G2019S): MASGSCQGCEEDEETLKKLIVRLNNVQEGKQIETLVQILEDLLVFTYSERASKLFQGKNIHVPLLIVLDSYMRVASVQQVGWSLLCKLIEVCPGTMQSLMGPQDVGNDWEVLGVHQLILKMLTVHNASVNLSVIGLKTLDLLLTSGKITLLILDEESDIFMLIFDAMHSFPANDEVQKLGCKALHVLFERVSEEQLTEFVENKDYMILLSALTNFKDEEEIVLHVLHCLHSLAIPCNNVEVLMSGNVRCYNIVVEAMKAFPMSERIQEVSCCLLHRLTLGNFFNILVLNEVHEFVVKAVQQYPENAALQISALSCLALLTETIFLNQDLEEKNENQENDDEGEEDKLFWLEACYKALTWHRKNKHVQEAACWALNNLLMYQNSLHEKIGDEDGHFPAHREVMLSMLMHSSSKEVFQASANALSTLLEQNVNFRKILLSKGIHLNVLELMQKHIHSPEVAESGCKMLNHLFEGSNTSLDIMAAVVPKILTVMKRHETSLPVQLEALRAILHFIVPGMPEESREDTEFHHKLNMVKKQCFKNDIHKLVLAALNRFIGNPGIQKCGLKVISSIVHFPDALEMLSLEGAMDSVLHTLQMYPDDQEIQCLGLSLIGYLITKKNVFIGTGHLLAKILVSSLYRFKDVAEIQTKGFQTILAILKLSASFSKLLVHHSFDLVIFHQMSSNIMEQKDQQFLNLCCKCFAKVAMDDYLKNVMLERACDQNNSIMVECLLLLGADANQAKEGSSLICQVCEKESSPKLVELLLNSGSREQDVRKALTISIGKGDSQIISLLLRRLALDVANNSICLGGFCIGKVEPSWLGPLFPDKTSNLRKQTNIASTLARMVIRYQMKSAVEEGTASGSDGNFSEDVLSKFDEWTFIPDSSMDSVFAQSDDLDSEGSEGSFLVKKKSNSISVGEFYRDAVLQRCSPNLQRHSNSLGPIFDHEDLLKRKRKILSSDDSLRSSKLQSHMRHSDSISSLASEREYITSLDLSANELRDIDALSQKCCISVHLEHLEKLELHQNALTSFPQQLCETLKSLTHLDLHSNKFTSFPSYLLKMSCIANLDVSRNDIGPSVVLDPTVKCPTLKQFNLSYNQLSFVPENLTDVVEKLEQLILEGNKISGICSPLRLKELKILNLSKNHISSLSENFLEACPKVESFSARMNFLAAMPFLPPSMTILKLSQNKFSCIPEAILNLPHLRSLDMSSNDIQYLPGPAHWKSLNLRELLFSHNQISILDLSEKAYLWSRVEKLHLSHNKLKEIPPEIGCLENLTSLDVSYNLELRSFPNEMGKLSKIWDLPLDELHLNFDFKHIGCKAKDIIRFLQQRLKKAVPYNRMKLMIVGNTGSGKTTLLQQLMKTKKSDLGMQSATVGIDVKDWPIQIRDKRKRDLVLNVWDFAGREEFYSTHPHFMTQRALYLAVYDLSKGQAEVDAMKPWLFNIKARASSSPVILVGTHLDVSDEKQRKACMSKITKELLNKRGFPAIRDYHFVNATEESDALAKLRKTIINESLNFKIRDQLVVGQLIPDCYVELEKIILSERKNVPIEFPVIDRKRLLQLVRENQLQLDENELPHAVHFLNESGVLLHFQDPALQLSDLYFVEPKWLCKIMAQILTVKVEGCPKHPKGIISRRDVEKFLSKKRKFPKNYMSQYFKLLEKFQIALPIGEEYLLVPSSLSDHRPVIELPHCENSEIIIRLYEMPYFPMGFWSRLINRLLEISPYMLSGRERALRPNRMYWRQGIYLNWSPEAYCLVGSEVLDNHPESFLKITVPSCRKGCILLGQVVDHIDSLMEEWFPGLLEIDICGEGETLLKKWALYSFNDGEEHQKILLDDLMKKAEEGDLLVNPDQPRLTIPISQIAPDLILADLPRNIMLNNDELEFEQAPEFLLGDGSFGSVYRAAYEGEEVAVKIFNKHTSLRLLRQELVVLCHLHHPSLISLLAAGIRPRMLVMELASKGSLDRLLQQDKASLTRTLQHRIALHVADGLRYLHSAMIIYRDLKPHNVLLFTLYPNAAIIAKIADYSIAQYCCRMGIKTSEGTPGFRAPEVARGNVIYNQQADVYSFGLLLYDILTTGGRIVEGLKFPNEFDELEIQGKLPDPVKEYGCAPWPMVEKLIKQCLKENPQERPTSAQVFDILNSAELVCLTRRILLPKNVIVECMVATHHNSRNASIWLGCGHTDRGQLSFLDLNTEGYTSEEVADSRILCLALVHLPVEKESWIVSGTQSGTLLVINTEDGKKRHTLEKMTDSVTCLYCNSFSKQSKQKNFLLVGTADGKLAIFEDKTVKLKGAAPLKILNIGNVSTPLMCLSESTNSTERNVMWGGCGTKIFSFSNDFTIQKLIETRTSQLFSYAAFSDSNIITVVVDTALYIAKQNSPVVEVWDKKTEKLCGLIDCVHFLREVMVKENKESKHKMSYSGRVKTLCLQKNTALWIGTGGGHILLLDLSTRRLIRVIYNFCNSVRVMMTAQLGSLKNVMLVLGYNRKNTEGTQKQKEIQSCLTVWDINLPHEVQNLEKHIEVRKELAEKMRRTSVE

SMILES: COc1cc(C(=O)N2CCC(N3CCN(C)CC3)CC2)ccc1Nc1ncc2c(n1)N(C)c1ccccc1C(=O)N2C [LRRK2-IN-1]
- IC50: 5.25 nM
